According to patent publication US20090233943A9, “NEW COMPOUNDS 835” (priority 2007, published 2009):
Counter-ions that a name gives are not always drawn.

Molecular target: T1, human β-Secretase (soluble part, AA 1-AA 460, sBACE-Fc) (Homo sapiens, UniProt P56817)
T1 construct: The soluble part of the human β-Secretase (AA 1-AA 460) was cloned; made in house
Assay: TR-FRET assay (β-secretase enzyme)
Assay type: biochemical
Method: The enzyme used in the IGEN Cleavage-, Fluorescent-, TR-FRET- and BiaCore assays is described as follows:
The soluble part of the human β-Secretase (AA 1-AA 460) was cloned into the ASP2-Fc10-1-IRES-GFP-neoK mammalian expression vector. The gene was fused to the Fc domain of IgG1 (affinity tag) and stably cloned into SEEK 293 cells. Purified sBACE-Fc is stored in Tris buffer, pH 9.2 and has a purity of 95%.
Enzyme was diluted to 6 μg/mL and the substrate (Europium)[…](Qsy7) to 200 nM in reaction buffer (NaAcetate, chaps, triton x-100, EDTA pH 4.5). Compounds were diluted to the desired concentration in dimethyl sulfoxide (final dimethyl sulfoxide concentration in assay is 5%). […] Enzyme (9 μL) and 1 μL of compound in dimethyl sulfoxide was added to the plate, mixed and pre-incubated for 10 min. Substrate (10 μL) was added and the reaction proceeded in the dark for 15 min at RT. The reaction was stopped with the addition of 7 μL NaAcetate, pH 9. The fluorescence of the product was measured on a Victor II plate reader with an excitation wavelength of 340 nm and an emission wavelength of 615 nm. […] The dimethyl sulfoxide control defined the 100% activity level and 0% activity was defined by exclusion of the enzyme (using reaction buffer instead).

T1 sequence (P56817 22-460): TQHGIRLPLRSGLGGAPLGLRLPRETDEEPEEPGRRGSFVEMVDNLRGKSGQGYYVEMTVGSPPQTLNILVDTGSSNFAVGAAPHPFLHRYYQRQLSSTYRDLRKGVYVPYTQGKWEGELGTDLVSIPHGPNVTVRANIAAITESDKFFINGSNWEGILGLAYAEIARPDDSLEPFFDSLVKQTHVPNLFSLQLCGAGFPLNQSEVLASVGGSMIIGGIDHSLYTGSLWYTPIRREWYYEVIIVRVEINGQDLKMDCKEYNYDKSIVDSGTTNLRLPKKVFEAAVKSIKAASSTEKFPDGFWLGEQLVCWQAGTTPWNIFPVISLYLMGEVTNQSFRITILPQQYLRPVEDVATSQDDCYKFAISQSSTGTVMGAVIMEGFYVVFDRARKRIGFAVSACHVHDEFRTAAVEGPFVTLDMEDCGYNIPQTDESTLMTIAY

COc1cncc(-c2cc(C3(c4ccc(S(F)(F)(F)(F)F)cc4)N=C(N)N(C)C3=O)ccc2F)c1 (single isomer, unassigned) [26 isomer 1] was tested, and the IC50 was 13 nM.

COc1cncc(-c2cc(C3(c4ccc(S(F)(F)(F)(F)F)cc4)N=C(N)N(C)C3=O)ccc2F)c1 (single isomer, unassigned) [26 isomer 2] showed an IC50 of 465 nM.

Compound COc1cccc(-c2cccc(C3(c4ccc(S(F)(F)(F)(F)F)cc4)N=C(N)N(C)C3=O)c2)c1F (single isomer, unassigned) [37 isomer 1] has an IC50 of 49 nM.

In the case of COc1cccc(-c2cccc(C3(c4ccc(S(F)(F)(F)(F)F)cc4)N=C(N)N(C)C3=O)c2)c1F (single isomer, unassigned) [37 isomer 2], the IC50 is reported as 2630 nM.

Work on COc1cccc(-c2cc(C3(c4ccc(N=S(C)(C)=O)cc4)N=C(N)N(C)C3=O)ccc2F)c1 (stereo not drawn) [Example 5, 2-Amino-5-(4-{[dimethyl(oxido)-λ^4-sulfanylidene]amino}phenyl)-5-(6-fluoro-3′-methoxybiphenyl-3-yl)-3-methyl-3,5-dihydro-4H-imidazol-4-one hydrochloride] yielded an IC50 of 756 nM.

Compound CN1C(=O)C(c2ccc(S(F)(F)(F)(F)F)cc2)(c2ccc(F)c(-c3cncnc3)c2)N=C1N (stereo not drawn) [Example 22, 2-Amino-5-(4-fluoro-3-pyrimidin-5-ylphenyl)-3-methyl-5-[4-(pentafluoro-λ^6-sulfanyl)phenyl]-3,5-dihydro-4H-imidazol-4-one] has an IC50 of 49 nM.

Work on CN1C(=O)C(c2ccc(S(F)(F)(F)(F)F)cc2)(c2ccc(F)c(-c3cncc(C#N)c3)c2)N=C1N (stereo not drawn) [Example 23, 5-(5-{2-Amino-1-methyl-5-oxo-4-[4-(pentafluoro-A-sulfanyl)phenyl]-4,5-dihydro-1H-imidazol-4-yl}-2-fluorophenyl)nicotinonitrile 0.25 acetate] yielded an IC50 of 101 nM.

Compound CN1C(=O)C(c2ccc(S(F)(F)(F)(F)F)cc2)(c2ccc(F)c(-c3cccnc3)c2)N=C1N (stereo not drawn) [Example 24, 2-Amino-5-(4-fluoro-3-pyridin-3-ylphenyl)-3-methyl-5-[4-(pentafluoro-λ^6-sulfanyl)phenyl]-3,5-dihydro-4H-imidazol-4-one] has an IC50 of 53 nM.

COc1cncc(-c2cc(C3(c4ccc(S(F)(F)(F)(F)F)cc4)N=C(N)N(C)C3=O)ccc2F)c1 (stereo not drawn) [Example 25, 2-Amino-5-[4-fluoro-3-(5-methoxypyridin-3-yl)phenyl]-3-methyl-5-[4-(pentafluoro-λ^6-sulfanyl)phenyl]-3,5-dihydro-4H-imidazol-4-one] was tested, and the IC50 was 30 nM.

Work on CN1C(=O)C(c2ccc(S(F)(F)(F)(F)F)cc2)(c2ccc(F)c(-c3cncc(F)c3)c2)N=C1N (stereo not drawn) [Example 27, 2-Amino-5-[4-fluoro-3-(5-fluoropyridin-3-yl)phenyl]-3-methyl-5-[4-(pentafluoro-λ^6-sulfanyl)phenyl]-3,5-dihydro-4H-imidazol-4-one 0.25 acetate] yielded an IC50 of 81 nM.

In the case of CN1C(=O)C(c2ccc(S(F)(F)(F)(F)F)cc2)(c2ccc(F)c(-c3cccnc3F)c2)N=C1N (stereo not drawn) [Example 28, 2-amino-5-[4-fluoro-3-(2-fluoropyridin-3-yl)phenyl]-3-methyl-5-[4-(pentafluoro-λ^6-sulfanyl)phenyl]-3,5-dihydro-4H-imidazol-4-one 0.25 acetate], the IC50 is reported as 69 nM.

Compound CN1C(=O)C(c2ccc(S(F)(F)(F)(F)F)cc2)(c2ccc(F)c(-c3cnccc3C#N)c2)N=C1N (stereo not drawn) [Example 29, 3-(5-{2-amino-1-methyl-5-oxo-4-[4-(pentafluoro-λ^6-sulfanyl)phenyl]-4,5-dihydro-1H-imidazol-4-yl}-2-fluorophenyl)isonicotinonitrile 0.25 acetate] has an IC50 of 81 nM.

With CN1C(=O)C(c2ccc(S(F)(F)(F)(F)F)cc2)(c2ccc(F)c(-c3cnccn3)c2)N=C1N (stereo not drawn) [Example 30, 2-amino-5-(4-fluoro-3-pyrazin-2-ylphenyl)-3-methyl-5-[4-(pentafluoro-λ^6-sulfanyl)phenyl]-3,5-dihydro-4H-imidazol-4-one 0.75 acetate] the IC50 was 124 nM.

With CN1C(=O)C(c2ccc(S(F)(F)(F)(F)F)cc2)(c2cccc(-c3cccnc3F)c2)N=C1N (stereo not drawn) [Example 31, 2-amino-5-[3-(2-fluoropyridin-3-yl)phenyl]-3-methyl-5-[4-(pentafluoro-λ^6-sulfanyl)phenyl]-3,5-dihydro-4H-imidazol-4-one] the IC50 was 83 nM.

In the case of CN1C(=O)C(c2ccc(S(F)(F)(F)(F)F)cc2)(c2cccc(-c3cncnc3)c2)N=C1N (stereo not drawn) [Example 32, 2-amino-3-methyl-5-[4-(pentafluoro-λ^6-sulfanyl)phenyl]-5-(3-pyrimidin-5-ylphenyl)-3,5-dihydro-4H-imidazol-4-one], the IC50 is reported as 55 nM.

CN1C(=O)C(c2ccc(S(F)(F)(F)(F)F)cc2)(c2cccc(-c3cccnc3)c2)N=C1N (stereo not drawn) [Example 33, 2-amino-3-methyl-5-[4-(pentafluoro-λ^6-sulfanyl)phenyl]-5-(3-pyridin-3-ylphenyl)-3,5-dihydro-4H-imidazol-4-one] gave an IC50 of 52 nM.

In the case of CN1C(=O)C(c2ccc(S(F)(F)(F)(F)F)cc2)(c2cccc(-c3cnccc3C#N)c2)N=C1N (stereo not drawn) [Example 34, 3-(3-{2-amino-1-methyl-5-oxo-4-[4-(pentafluoro-λ^6-sulfanyl)phenyl]-4,5-dihydro-1H-imidazol-4-yl}phenyl)pyridine-4-carbonitrile], the IC50 is reported as 467 nM.

Compound CN1C(=O)C(c2ccc(S(F)(F)(F)(F)F)cc2)(c2cccc(-c3cncc(F)c3)c2)N=C1N (stereo not drawn) [Example 35, 2-amino-5-[3-(5-fluoropyridin-3-yl)phenyl]-3-methyl-5-[4-(pentafluoro-λ^6 sulfanyl)phenyl]-3,5-dihydro-4H-imidazol-4-one] has an IC50 of 68 nM.

CN1C(=O)C(c2ccc(S(F)(F)(F)(F)F)cc2)(c2cccc(-c3cnccn3)c2)N=C1N (stereo not drawn) [Example 36, 2-amino-3-methyl-5-[4-(pentafluoro-λ^6-sulfanyl)phenyl]-5-(3-pyrazin-2-ylphenyl)-3,5-dihydro-4H-imidazol-4-one] showed an IC50 of 56 nM.

With COc1ccc(F)c(-c2cccc(C3(c4ccc(S(F)(F)(F)(F)F)cc4)N=C(N)N(C)C3=O)c2)c1 (stereo not drawn) [Example 38, 2-amino-5-(2′-fluoro-5′-methoxybiphenyl-3-yl)-3-methyl-5-[4-(pentafluoro-λ^6 sulfanyl)phenyl]-3,5-dihydro-4H-imidazol-4-one] the IC50 was 71 nM.

Work on CN1C(=O)C(c2ccc(S(F)(F)(F)(F)F)cc2)(c2cccc(-c3cc(C#N)ccc3F)c2)N=C1N (stereo not drawn) [Example 39, 2-amino-5-(2′-fluoro-5′-carbonitrilebiphenyl-3-yl)-3-methyl-5-[4-(pentafluoro-λ^6-sulfanyl)phenyl]-3,5-dihydro-4H-imidazol-4-one] yielded an IC50 of 356 nM.

Work on COc1cccc(-c2cccc(C3(c4ccc(S(F)(F)(F)(F)F)cc4)N=C(N)N(C)C3=O)c2)c1 (stereo not drawn) [Example 40, 2-amino-5-(3′-methoxybiphenyl-3-yl)-3-methyl-5-[4-(pentafluoro-λ^6-sulfanyl)phenyl]-3,5-dihydro-4H-imidazol-4-one] yielded an IC50 of 81 nM.

CN1C(=O)C(c2ccc(S(F)(F)(F)(F)F)cc2)(c2cccc(-c3cccc(C#N)c3)c2)N=C1N (stereo not drawn) [Example 41, 3′-{2-amino-1-methyl-5-oxo-4-[4-(pentafluoro-λ^6-sulfanyl)phenyl]-4,5-dihydro-1H-imidazol-4-yl}biphenyl-3-carbonitrile] gave an IC50 of 143 nM.

CN1C(=O)C(c2ccc(S(F)(F)(F)(F)F)cc2)(c2cccc(-c3cc(C#N)ccn3)c2)N=C1N (stereo not drawn) [Example 42, 2-(3-{2-amino-1-methyl-5-oxo-4-[4-(pentafluoro-λ^6-sulfanyl)phenyl]-4,5-dihydro-1H-imidazol-4-yl}phenyl)pyridine-4-carbonitrile] showed an IC50 of 405 nM.
